Assay results: PubChem BioAssay AID330 (DTP/NCI, 2004)
“And” between values parts separate entries of the source, which are not always exact repeats. Equal entries are not always repeated. Inconclusive results and toxic doses are left out. How the source made its calls: active means survival T/C of 150% or more; inactive means T/C below 125% in these data.

System: P388 leukemia ip, CD2F1 mice, survival T/C
Assay: NCI In Vivo Anticancer Drug Screen. Data for tumor model P388 Leukemia (intraperitoneal) in CD2F1 (CDF1) mice
Settings: endpoint: median survival time, higher = longer survival
Procedure, shortened: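 Mice carrying the transplanted tumor received test compound or vehicle. Survival was recorded in each group, and the value is the treated-group measurement divided by that of the vehicle-treated control group.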

[1] = dose: 50.0 mg/kg/injection, schedule: Q01DX005 (ip), vehicle: saline
[2] = dose: 100.0 mg/kg/injection, schedule: Q01DX005 (ip), vehicle: saline
[3] = dose: 200.0 mg/kg/injection, schedule: Q01DX005 (ip), vehicle: saline
[4] = dose: 50.0 mg/kg/injection, schedule: Q01DX005 (ip), vehicle: Klucel (hydroxypropylcellulose) (HPC)
[5] = dose: 100.0 mg/kg/injection, schedule: Q01DX005 (ip), vehicle: Klucel (hydroxypropylcellulose) (HPC)
[6] = dose: 200.0 mg/kg/injection, schedule: Q01DX005 (ip), vehicle: Klucel (hydroxypropylcellulose) (HPC)
[7] = dose: 100.0 mg/kg/injection, schedule: Q04DX002 (ip), vehicle: saline with Tween-80
[8] = dose: 25.0 mg/kg/injection, schedule: Q01DX009 (ip), vehicle: saline with Tween-80
[9] = dose: 50.0 mg/kg/injection, schedule: Q01DX009 (ip), vehicle: saline with Tween-80
[10] = dose: 100.0 mg/kg/injection, schedule: Q01DX009 (ip), vehicle: saline with Tween-80
[11] = dose: 200.0 mg/kg/injection, schedule: Q01DX009 (ip), vehicle: saline with Tween-80
[12] = dose: 12.5 mg/kg/injection, schedule: Q01DX009 (ip), vehicle: saline with Tween-80
[13] = dose: 25.0 mg/kg/injection, schedule: Q04DX003 (ip), vehicle: saline with Tween-80
[14] = dose: 50.0 mg/kg/injection, schedule: Q04DX003 (ip), vehicle: saline with Tween-80
[15] = dose: 60.0 mg/kg/injection, schedule: Q01DX005 (ip), vehicle: Klucel (hydroxypropylcellulose) (HPC)
[16] = dose: 120.0 mg/kg/injection, schedule: Q01DX005 (ip), vehicle: Klucel (hydroxypropylcellulose) (HPC)

Measured: T/C

N/C(=N\C(O)C(Cl)(Cl)Cl)SCNC(=O)NCS/C(N)=N/C(O)C(Cl)(Cl)Cl (stereo unspecified)
inactive: dose: 50.0 mg/kg/injection, schedule: Q01DX005 (ip), vehicle: saline with Tween-80 105 % of control | dose: 100.0 mg/kg/injection, schedule: Q01DX005 (ip), vehicle: saline with Tween-80 100 % of control | dose: 200.0 mg/kg/injection, schedule: Q01DX005 (ip), vehicle: saline with Tween-80 95 % of control

COC(=O)C(CC=C(C)C)C(C)=O (stereo unspecified)
inactive: [1] 101 % of control | [2] 101 % of control | [3] 105 % of control

CC1[C@@]2(O[C@@H]3C=C4C5CCC6Cc7nc8c(nc7C[C@@]6(C)C5C[C@H](O)[C@@]4(C)[C@]13O)CC1CCc3c(cc4c5c3C(O)C[C@H]5[C@@H](C)C3(O4)OC(C)(C)CC3O)[C@]1(C)C8)O[C@@](C)(CO)C[C@@H]2O (stereo partly specified)
inactive: dose: 12.5 micrograms/kg/injection, schedule: Q01DX009 (ip), vehicle: saline + alcohol 109 % of control | dose: 25.0 micrograms/kg/injection, schedule: Q01DX009 (ip), vehicle: saline + alcohol 107 % of control | dose: 100.0 micrograms/kg/injection, schedule: Q01DX009 (ip), vehicle: saline + alcohol 98 % of control

O=C(C#Cc1ccccc1)C1=Cc2ccccc2OC1
inactive: [4] 94 % of control | [5] 95 % of control | [6] 96 % of control

OC1COC(c2nn(-c3ccccc3)c3nc4ccc(Cl)cc4nc23)C1O (stereo unspecified)
inactive: [7] 107 % of control | dose: 200.0 mg/kg/injection, schedule: Q04DX002 (ip), vehicle: saline with Tween-80 97 % of control | dose: 400.0 mg/kg/injection, schedule: Q04DX002 (ip), vehicle: saline with Tween-80 95 % of control

CC1CN(C(=O)/C=C/C(=O)OC2CCCCC2)CCN1C(=O)/C=C/C(=O)OC1CCCCC1 (stereo unspecified)
inactive: [4] 100 % of control | [5] 100 % of control | [6] 98 % of control

CCCCOCN(COCCCC)c1ccccn1
inactive: [8] 103 % of control | [9] 100 % of control | dose: 50.0 mg/kg/injection, schedule: Q01DX009 (ip), vehicle: saline 111 % of control | [10] 116 % of control | dose: 100.0 mg/kg/injection, schedule: Q01DX009 (ip), vehicle: saline 122 % of control | [11] 116 % of control | dose: 200.0 mg/kg/injection, schedule: Q01DX009 (ip), vehicle: saline 117 % of control

CCCCCOCCCCC
inactive: dose: 25.0 mg/kg/injection, schedule: Q01DX005 (ip), vehicle: saline 100 % of control | [1] 99 % of control | [2] 95 % of control | [3] 96 % of control

CCCCn1ccc(=O)[nH]c1=O
inactive: [4] 93 % of control | [5] 99 % of control | [6] 101 % of control

Cc1c(N)nc([C@H](CC(N)=O)NC[C@H](N)C(N)=O)nc1C(=O)N[C@H](C(=O)N[C@H](C)[C@@H](O)CC(=O)N[C@H](C(=O)NC(O[C@@H]1O[C@@H](C)[C@@H](N)[C@@H](O)[C@H]1O)C(O)c1nc(-c2nc(C(=O)NCCCCN)cs2)cs1)[C@@H](C)O)[C@@H](O[C@@H]1O[C@@H](CO)[C@@H](O)[C@H](O)[C@@H]1O[C@H]1O[C@H](CO)[C@@H](O)[C@H](OC(N)=O)[C@@H]1O)c1c[nH]cn1 (stereo partly specified)
inactive: dose: 0.5 mg/kg/injection, schedule: Q01DX009 (ip), vehicle: water 101 % of control | dose: 1.0 mg/kg/injection, schedule: Q01DX009 (ip), vehicle: water 98 % of control | dose: 2.0 mg/kg/injection, schedule: Q01DX009 (ip), vehicle: water 124 % of control | dose: 4.0 mg/kg/injection, schedule: Q01DX009 (ip), vehicle: water 95 % of control | dose: 8.0 mg/kg/injection, schedule: Q01DX009 (ip), vehicle: water 123 % of control

C1=CSC(=C2SC=CS2)S1
inactive: dose: 6.25 mg/kg/injection, schedule: Q01DX009 (ip), vehicle: saline with Tween-80 106 % of control | [12] 106 % of control and 97 % of control | [8] 102 % of control and 110 % of control | [9] 100 % of control and 106 % of control and 114 % of control | [10] 108 % of control | [11] 100 % of control

C/C(N)=C\C#N
inactive: [13] 100 % of control | [14] 101 % of control | dose: 100.0 mg/kg/injection, schedule: Q04DX003 (ip), vehicle: saline with Tween-80 98 % of control and 97 % of control

NC(=O)C12CCCCC1CCC(=O)C2 (stereo unspecified)
inactive: dose: 2.5 mg/kg/injection, schedule: Q01DX009 (ip), vehicle: saline 100 % of control | dose: 5.0 mg/kg/injection, schedule: Q01DX009 (ip), vehicle: saline 100 % of control | dose: 10.0 mg/kg/injection, schedule: Q01DX009 (ip), vehicle: saline 100 % of control

c1ccc(N=NC2=NN(c3ccccc3)CCS2)cc1
inactive: [8] 102 % of control and 107 % of control | [9] 102 % of control and 116 % of control | [10] 101 % of control and 107 % of control | [11] 100 % of control and 110 % of control

O=C(O)c1cc(Cl)n[nH]c1=O
inactive: [4] 95 % of control | [5] 92 % of control | [6] 86 % of control

CC[n+]1cccc(C(=O)c2ccccc2)c1
inactive: dose: 3.75 mg/kg/injection, schedule: Q01DX005 (ip), vehicle: saline 103 % of control | dose: 7.5 mg/kg/injection, schedule: Q01DX005 (ip), vehicle: saline 97 % of control | dose: 15.0 mg/kg/injection, schedule: Q01DX005 (ip), vehicle: saline 102 % of control | dose: 30.0 mg/kg/injection, schedule: Q01DX005 (ip), vehicle: saline 105 % of control

Fc1ccc(CSC(=S)Nc2ccc(F)cc2)cc1
inactive: dose: 50.0 mg/kg/injection, schedule: Q01DX009 (ip), vehicle: suspension in saline 108 % of control | dose: 100.0 mg/kg/injection, schedule: Q01DX009 (ip), vehicle: suspension in saline 103 % of control | dose: 200.0 mg/kg/injection, schedule: Q01DX009 (ip), vehicle: suspension in saline 108 % of control

CC1(C(=O)O)CCC2(C(=O)O)CCC3(C)C(=CCC4C5(C)CC(O)C(O)C(C)(CO)C5CCC43C)C2C1 (stereo unspecified)
inactive: dose: 6.25 mg/kg/injection, schedule: Q01DX009 (ip), vehicle: saline 100 % of control | dose: 12.5 mg/kg/injection, schedule: Q01DX009 (ip), vehicle: saline 100 % of control | dose: 25.0 mg/kg/injection, schedule: Q01DX009 (ip), vehicle: saline 96 % of control

[Cl][Pt+2][Cl].[NH-]c1ccc(C(=O)O)cc1[NH-]
inactive: dose: 6.25 mg/kg/injection, schedule: Q04DX002 (ip), vehicle: saline with Tween-80 100 % of control | dose: 12.5 mg/kg/injection, schedule: Q04DX002 (ip), vehicle: saline with Tween-80 102 % of control | dose: 25.0 mg/kg/injection, schedule: Q04DX002 (ip), vehicle: saline with Tween-80 100 % of control | dose: 50.0 mg/kg/injection, schedule: Q04DX002 (ip), vehicle: saline with Tween-80 110 % of control | [7] 120 % of control

CCN(CC)C(=O)c1ccccc1-c1ccccc1C(=O)N(CC)CC
inactive: dose: 100.0 mg/kg/injection, schedule: Q04DX003 (ip), vehicle: saline 101 % of control | dose: 200.0 mg/kg/injection, schedule: Q04DX003 (ip), vehicle: saline 98 % of control | dose: 400.0 mg/kg/injection, schedule: Q04DX003 (ip), vehicle: saline 95 % of control

COC(=O)[C@@H]1O[C@H]1c1ccccn1
inactive: dose: 25.0 mg/kg/injection, schedule: Q01DX005 (ip), vehicle: Klucel (hydroxypropylcellulose) (HPC) 96 % of control | [4] 97 % of control | [5] 100 % of control | [6] 97 % of control

O=C(O)c1c(Cl)n(Cc2ccc(Cl)cc2Cl)c2ccccc12
inactive: [15] 100 % of control | [16] 103 % of control and 93 % of control | dose: 240.0 mg/kg/injection, schedule: Q01DX005 (ip), vehicle: Klucel (hydroxypropylcellulose) (HPC) 104 % of control and 93 % of control

Cc1ccc(S(=O)(=O)C2(NC(=O)c3ccc(Cl)cc3)CC2)cc1
inactive: dose: 30.0 mg/kg/injection, schedule: Q01DX005 (ip), vehicle: Klucel (hydroxypropylcellulose) (HPC) 92 % of control and 94 % of control | [15] 93 % of control | [16] 86 % of control and 91 % of control and 92 % of control

O=C(CN1CCNCC1)N1CCOCC1
inactive: [1] 100 % of control | [2] 102 % of control | [3] 97 % of control

O=c1c2ccccc2ccn1O
inactive: [4] 97 % of control | [5] 89 % of control | [6] 89 % of control

Cc1ccccc1N1C(=O)CSC1=S
inactive: [12] 105 % of control | [8] 95 % of control | [9] 105 % of control

Nc1cccc(NC=O)c1
inactive: dose: 12.5 mg/kg/injection, schedule: Q04DX003 (ip), vehicle: saline with Tween-80 100 % of control | [13] 110 % of control | [14] 100 % of control
